The supplement of paper PMC10307832

Tests used:
Assay in all cases: relative viability (nuclei count vs DMSO), 5 days (fraction); higher = more cells survive
[1] = compound: C1CC1C(=O)NC2=NNC3=C2C=CC(=C3)C4=CC(=CC=C4)C(=O)NC5CC5 [XMD13-2] + COc1cccc2cc(-c3nc([C@H]4CC[C@H](C(=O)O)CC4)n4ncnc(N)c34)[nH]c12 [OSI-027] (partner 0.5 µM)
Method in brief: (§1)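 Each reported value is a median over duplicate plates. It expresses relative viability: treated-well nuclei count divided by vehicle-well nuclei count. Lung cancer cell lines in 1536-well plates were dosed by pin tool a day after seeding, alone with one drug or with a fixed anchor-drug dose plus five library-drug doses (not always all listed) in √10 steps, and nuclei were counted after 5 days.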

[2] = compound: Cc1ccc(C(=O)Nc2cccc(C(F)(F)F)c2)cc1Nc1cncc(C(N)=O)c1 [ALW-II-49-7] + COc1cc2c(Oc3ccc(NC(=O)C4(C(=O)Nc5ccc(F)cc5)CC4)cc3F)ccnc2cc1OCCCN1CCOCC1 [Foretinib] (partner 0.25 µM)
Method in brief: as §1

[3] = compound: Cc1ccc(C(=O)Nc2cccc(C(F)(F)F)c2)cc1Nc1cncc(C(N)=O)c1 [ALW-II-49-7] + Nc1ncn([C@H]2C[C@H](O)[C@@H](CO)O2)c(=O)n1 [Decitabine] (partner 2 µM)
Method in brief: as §1

[4] = compound: Cc1nc(Nc2ncc(C(=O)Nc3c(C)cccc3Cl)s2)cc(N2CCN(CCO)CC2)n1 [Dasatinib] + Nc1ncn([C@H]2C[C@H](O)[C@@H](CO)O2)c(=O)n1 [Decitabine] (partner 2 µM)
Method in brief: as §1

Cell Line	relative viability ([1]; first compound 0.05 µM)	relative viability ([1]; first compound 0.1581 µM)	relative viability ([1]; first compound 0.5 µM)	relative viability ([1]; first compound 1.581 µM)	relative viability ([1]; first compound 5 µM)	relative viability ([2]; first compound 0.08 µM)	relative viability ([2]; first compound 0.253 µM)	relative viability ([2]; first compound 0.8 µM)	relative viability ([2]; first compound 2.53 µM)	relative viability ([2]; first compound 8 µM)	relative viability ([3]; first compound 0.08 µM)	relative viability ([3]; first compound 0.253 µM)	relative viability ([3]; first compound 0.8 µM)	relative viability ([3]; first compound 2.53 µM)	relative viability ([3]; first compound 8 µM)	relative viability ([4]; first compound 0.005 µM)	relative viability ([4]; first compound 0.01581 µM)	relative viability ([4]; first compound 0.05 µM)	relative viability ([4]; first compound 0.1581 µM)	relative viability ([4]; first compound 0.5 µM)
NCI-H1666	0.869	0.839	0.862	0.814	0.817	0.954	0.887	0.964	1.05	1.05	0.751	0.735	0.735	0.898	0.714	0.725	0.691	0.73	0.656	0.521
NCI-H1734	0.683	0.554	0.647	0.502	0.447	0.958	0.91	0.871	0.741	0.799	0.492	0.53	0.527	0.584	0.574	0.508	0.48	0.533	0.412	0.321
NCI-H1755	0.798	0.699	0.797	0.576	0.775	0.875	1.06	0.807	0.931	0.825	0.66	0.726	0.719	0.756	0.719	0.682	0.641	0.602	0.509	0.323
NCI-H1793	0.404		0.255	0.277	0.271	0.667	0.642	0.728	0.701	0.855	0.518	0.527	0.516	0.471	0.53	0.504	0.427	0.295	0.328	0.323
NCI-H1915	0.756	0.591	0.645	0.548	0.595	1.17	1.07	1.06	0.864	0.816	0.257	0.294	0.261	0.262	0.264	0.291	0.249	0.231	0.224	0.144
NCI-H1944	0.499	0.395	0.362	0.471	0.43	0.997	0.801	0.964	0.846	0.954	0.421	0.432	0.423	0.486	0.389	0.439	0.39	0.36	0.272	0.189
NCI-H1975	0.829	0.776	0.824	0.786	0.774	0.918	1.05	1	0.909	0.891	0.43	0.375	0.319	0.375	0.388	0.377	0.384	0.368	0.266	0.224
NCI-H1993	0.448	0.5	0.511	0.558	0.432	0.7	0.852	0.797	0.756	0.892	0.591	0.567	0.603	0.576	0.587	0.503	0.477	0.67	0.456	0.407
NCI-H2009	0.69	0.563	0.815	0.634	0.66	1.18	1.31	1.17	0.895	1.11	0.326	0.446	0.368	0.438	0.467	0.403	0.384	0.314	0.216	0.122
NCI-H2023	0.58	0.36	0.4	0.357	0.341	0.841	1.02	0.966	1.02	1.09	0.226	0.214	0.255	0.249	0.347	0.262	0.226	0.216	0.214	0.209
NCI-H2085	0.74	0.749	0.757	0.654	0.916	1.08	0.876	0.989	1.06	1.02	0.515	0.537	0.48	0.523	0.55	0.616	0.424	0.385	0.264	0.25
NCI-H2087	0.716	0.69	0.482	0.565	0.489	1.22	1.12	1.09	1.08	1.04	0.244	0.254	0.212	0.311	0.203	0.301	0.336	0.259	0.145	0.113
NCI-H2126	0.8	0.665	0.666	0.702	0.837	0.805	0.998	1.21	0.998	1.11	0.604	0.562	0.545	0.587	0.592	0.567	0.51	0.553	0.437	0.351
NCI-H2170	0.748	0.703	0.744	0.559	0.704	0.908	1.12	1.01	0.999	1.01	0.542	0.478	0.5	0.464	0.468	0.439	0.422	0.392	0.344	0.225
NCI-H2342	0.581	0.658	0.728	0.643	0.597	1.19	0.986	1.07	1.03	0.981	0.714	0.767	0.697	0.693	0.783	0.685	0.598	0.632	0.51	0.321
NCI-H2347	0.394	0.455	0.426	0.444	0.413	1.1	1.04	0.906	0.227	0.844	0.714	0.647	0.57	0.718	0.681	0.562	0.538	0.459	0.322	0.265
